“Also recorded” adds a separate entry of the source.
How the values were obtained:
[1] = tested on: 468 kinases; assay: Kinase selectivity panel (Treespot dendrogram); format: binding; conditions: for number of kinases blocked to 1% activity level / number of kinases blocked to 10% activity level / number of kinases blocked to 35% activity level: 5000 nM; for selectivity for PIKfyve: comparison of Example 1, Example 3 and apilimod
Description: In contrast, 50 nM Apilimod inhibited two kinases to 1% or 10%, and 3 kinases to 35% of control. To examine non-specific binding at higher concentrations, Example 1, Example 3, and Apilimod were tested at 5000 nM. […] PIKfyve is represented at the bottom left of each dendrogram.

[2] = tested on: Human Glioblastoma multiforme cells (T98G, G22VF, U251) and human medulloblastoma cells (p16, p9); assay: Cell viability by cell titer-Glo luminescence (ATP level) assay; format: cell-based; conditions: 72 hours, various concentrations
Description: Human Glioblastoma multiforme cells (T98G, G22VF, U251) and human medulloblastoma cells (p16, p9) were incubated with various concentrations of Example 1 for 72 hours, and then cell viability assessed by cell titer-Glo luminescence (ATP level) assay.
Methods: Example 1 was dissolved into DMSO (ATCC) at a concentration of 40 mM, this stock was further diluted to 2× the highest final working concentration into complete medium consisting of DMEM (Life Technologies), penicillin/streptomycin antibiotic solution (Life Technologies), and 10% FBS (Seradigm). This stock was dispensed into the final column of a white-walled, flat-bottomed 96-well plate (Corning). Serial dilutions (1.5× or 2× depending on the assay) were then made using complete medium down to the lowest assayed concentration of Example 1. The final column of the 96-well plate was saved as a vehicle-only control and included DMSO diluted 1:250 in complete medium. […]
These plates were placed in a 5% CO2, 37° C. incubator. After 72 hrs of incubation, relative ATP content was measured as an indirect indication of the number of viable cells per well. […] This reaction was protected from light and incubated for 10 min at room temperature, then total luminescence was read using a Synergy H1 microplate reader (Biotek).
Raw luminescence numbers or relative ATP concentration (reported as a percentage of the vehicle-treated control) are show. […]

[3] = tested on: Human osteosarcoma cells (U2OS, 143B, MG63, and SAOS2) and human pancreatic cancer cells (Panc-1, CFPAC); assay: Killing of osteosarcoma and pancreatic cell lines (Alamar Blue); format: cell-based; conditions: 72 hrs
Description: Human osteosarcoma cells (U2OS, 143B, MG63, and SAOS2) and human pancreatic cancer cells (Panc-1, CFPAC) were similarly tested for killing by the compound, as shown in FIG. 5. All experiments in FIG. 5 were performed using DMEM:F12 media (Life Technologies) as the base formulation for “complete” media for experiments with 143B and MG63 cells. Also, Alamar Blue was used to assay the relative number of viable cells per well after 72 hrs of growth. For these assays, growth media was removed from the cells, and replaced with fresh (“complete) media containing Alamar Blue reagent (Life Technologies) diluted 1:10. Plates were incubated at 5% CO2, 37° C. for 40 min then removed from the incubator and fluorescence was measured using a Synergy H1 microplate reader (Excitation: 560 nm Emission: 590 nm). Values represent raw photo counts minus the value of a well with Alamar Blue reagent (1:10 in medium) but no cells.

[4] = tested on: U251 glioblastoma cells; assay: LC3 / p62 western blotting (autophagy); format: cell-based, human
Description: Macroautophagy (hereafter “autophagy”) is a process that requires precise fusion of endosomes, autophagosomes, and lysosomes. Lysates from cells treated with Example 1 were prepared and probed by western blotting for LC3-I and LC3-II. Increased levels of LC3-II and increased p62 (sequestesome) were found showing the increased drive to undergo autophagy, in the face of inability to complete the process (i.e. ineffective autophagy). Lysosomes are the final destination of proteins destined for degradation by autophagy, and proteolysis in this organelle depends upon cathepsins among other enzymes.
FIG. 23 contains images showing induction of autophagy the Example 1 as evidenced by accumulation of LC3 over time. U251 glioblastoma cells were treated with 25, 500, or 20,000 nM MC042 for the indicated time periods, and then lysates prepared and blotted for LC3 and tubulin (loading control). Starting a t 6 hours, and becoming more evident by 24 hours, LC3-II (the lower band marked LC3) accumulated, indicating activation of autophagy.

[5] = tested on: U251 glioblastoma cell; assay: Cell killing in combination with vemurafenib; format: cell-based, human
Description: A 25 mM stock of vemurafenib (obtained from Selleckchem) in DMSO was diluted to 2× the indicated concentration into the cell suspension immediately prior to plating the cell suspension onto the pre-diluted Example 1 or Example 3, to result in a final 1× concentration of both compounds.
See FIG. 13 for showing of U251 glioblastoma cell killing by Example 1 alone or in the presence of 10 μM vemurafenib over a 72 hour time course.

Row | Structure (SMILES) | number of kinases blocked to 1% of control ([1]; 50 nM, 468 kinases) | number of kinases blocked to 10% of control ([1]; 50 nM, 468 kinases) | number of kinases blocked to 35% of control ([1]; 50 nM, 468 kinases) | number of kinases blocked to 1% activity level [1] | number of kinases blocked to 10% activity level [1] | number of kinases blocked to 35% activity level [1] | selectivity for PIKfyve [1] | cell viability (ATP level) [2] | cell killing [3] | induction of LC3 ([4]; 1 μM) | p62 degradation ([4]; 25, 500, or 20,000 nM) | LC3-II level ([4]; 25, 500, or 20,000 nM, starting at 6 hours, more evident by 24 hours) | cell killing on addition of vemurafenib ([5]; low concentrations of Example 1 (e.g., 0.5 μM) + 10 μM vemurafenib, 72 hour) | killing U251 in combination with vemurafenib [5]
1 | Cc1ccc(Nc2nc(N/N=C/c3c[nH]c4ccccc34)nc(N3CCOCC3)n2)cc1 [Example 1, (E)-4-(2-((1H-indol-3-yl)methylene)hydrazinyl)-6-morpholino-N-(p-tolyl)-1,3,5-triazin-2-amine] | 1 | did not block other kinases | did not block other kinases | 2 | 4 | 11 | more selective | killed effectively | killing | less robust | not degraded | accumulated | significantly improves cell killing | –
2 | Cc1ccc(Nc2nc(N/N=C/c3c[nH]c4ccccc34)cc(N3CCOCC3)n2)cc1 [Example 3, (E)-4-(2-((1H-indol-3-yl)methylene)hydrazinyl)-6-morpholino-N-(p-tolyl)pyrimidin-2-amine] | – | – | – | 1 | 1 | 4 | more selective; also recorded: highest selectivity | – | – | – | – | – | – | synergistic

Reference: patent US12030896B2, “PIKfyve inhibitors” (Mayo Foundation for Medical Education and Research, priority 2018, dated 2024)
